Bounds are passed on as bounds.

Holding throughout (type): cell-based
The target of assay [1] is T1, human S1P4 receptor (S1PR4) (Homo sapiens, UniProt O95977).
T1 construct: host or cells: CHO-K1
T1 sequence (O95977 1-384): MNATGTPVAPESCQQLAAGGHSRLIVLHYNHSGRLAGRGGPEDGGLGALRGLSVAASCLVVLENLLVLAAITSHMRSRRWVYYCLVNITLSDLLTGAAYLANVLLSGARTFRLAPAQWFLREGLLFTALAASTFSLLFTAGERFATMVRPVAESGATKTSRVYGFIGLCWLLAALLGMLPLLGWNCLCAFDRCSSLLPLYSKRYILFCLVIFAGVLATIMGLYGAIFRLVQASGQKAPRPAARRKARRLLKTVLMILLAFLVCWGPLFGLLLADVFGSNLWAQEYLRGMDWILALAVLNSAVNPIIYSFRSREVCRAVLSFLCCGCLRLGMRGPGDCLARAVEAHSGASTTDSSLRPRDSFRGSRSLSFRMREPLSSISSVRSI
Description: Intracellular Ca2+ release (method 1), agonist potency, S1P4. Particulars: CHO-K1 cells expressing human S1PR4. In outline:
(§1)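 CHO-K1 cells co-expressing the human S1P receptor, aequorin and Gq/i5 were loaded with Calcium 5 dye (1 h, 37° C), then equilibrated 45 min at RT in HBSS/20 mM Hepes/2.5 mM probenecid/0.1% BSA, pH 7.4. Fluorescence upon serially diluted compound fitted by 4-parameter logistic; EC50 and Emax normalized to phospho-fingolimod (100%).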

Assay [2] deals with T2, human S1P1 receptor (S1PR1) (Homo sapiens, UniProt P21453).
T2 construct: host or cells: CHO-K1
Put plainly: Intracellular Ca2+ release (method 1), agonist potency, S1P1. Particulars: CHO-K1 cells expressing human S1PR1; cells given as bound. The procedure, abridged: as §1

The target of assay [3] is T3, human S1P5 receptor (S1PR5) (Homo sapiens, UniProt Q9H228).
T3 construct: host or cells: CHO-K1
Put plainly: Intracellular Ca2+ release (method 1), agonist potency and efficacy, S1P5. Particulars: for Emax: maximum effect in % of reference agonist phospho-fingolimod (100%), read-out: hS1P5 EMax; for EC50: recombinant CHO-K1 cells expressing human S1PR5, aequorin, Gq/i5, Ca2+ release, read-out: S1P5 EC50 range. The procedure, abridged:
as §1

The target of assay [4] is T4, human S1P3 receptor (S1PR3) (Homo sapiens, UniProt Q99500).
T4 construct: host or cells: CHO-K1
Description: Intracellular Ca2+ release (method 1), agonist potency, S1P3. Particulars: CHO-K1 cells expressing human S1PR3. In outline:
as §1

T4 sequence (Q99500 whole entry): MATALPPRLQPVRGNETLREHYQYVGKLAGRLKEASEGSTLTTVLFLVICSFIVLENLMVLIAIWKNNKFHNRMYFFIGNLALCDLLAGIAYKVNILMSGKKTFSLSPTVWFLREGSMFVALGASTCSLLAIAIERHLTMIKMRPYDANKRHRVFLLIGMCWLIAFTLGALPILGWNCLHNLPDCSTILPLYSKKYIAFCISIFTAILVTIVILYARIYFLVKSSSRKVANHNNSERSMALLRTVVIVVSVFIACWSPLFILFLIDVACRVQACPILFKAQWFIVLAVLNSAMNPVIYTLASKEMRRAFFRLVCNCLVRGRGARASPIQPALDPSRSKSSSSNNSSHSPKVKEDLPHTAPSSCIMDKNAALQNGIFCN
T3 sequence (Q9H228 whole entry): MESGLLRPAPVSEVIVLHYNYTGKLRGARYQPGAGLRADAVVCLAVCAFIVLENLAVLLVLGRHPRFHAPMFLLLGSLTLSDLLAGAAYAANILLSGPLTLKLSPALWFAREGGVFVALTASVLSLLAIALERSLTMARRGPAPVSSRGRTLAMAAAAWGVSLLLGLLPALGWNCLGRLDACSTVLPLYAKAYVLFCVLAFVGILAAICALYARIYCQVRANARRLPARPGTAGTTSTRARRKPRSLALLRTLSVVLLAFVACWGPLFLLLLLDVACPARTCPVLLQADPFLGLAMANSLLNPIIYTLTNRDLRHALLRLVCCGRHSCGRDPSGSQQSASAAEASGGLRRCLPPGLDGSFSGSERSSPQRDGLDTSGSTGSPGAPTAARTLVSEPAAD
T2 sequence (P21453 whole entry): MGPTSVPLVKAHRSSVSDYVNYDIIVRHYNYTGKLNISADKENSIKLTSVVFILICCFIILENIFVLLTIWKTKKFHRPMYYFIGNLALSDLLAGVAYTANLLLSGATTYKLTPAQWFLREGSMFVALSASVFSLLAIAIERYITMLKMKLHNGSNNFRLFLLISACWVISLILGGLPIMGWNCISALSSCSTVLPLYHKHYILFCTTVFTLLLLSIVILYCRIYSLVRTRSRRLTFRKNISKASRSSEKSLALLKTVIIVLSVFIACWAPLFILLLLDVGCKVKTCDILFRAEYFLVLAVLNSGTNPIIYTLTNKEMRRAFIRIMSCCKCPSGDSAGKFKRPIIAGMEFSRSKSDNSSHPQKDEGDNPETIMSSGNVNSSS

`CC(C)Oc1ccc(C#Cc2ccc3c(c2)C2(CC2)CN(CCCC(=O)O)C3)cc1` [Compound 46, 4-(6′-((4-isopropoxyphenyl)ethynyl)-1′H-spiro[cyclopropane-1,4′-isoquinolin]-2′(3′H)-yl)butanoic acid]: the EC50 is above 1000 nM in assay [1] (cells given as bound), above 1000 nM in assay [2], below 10 nM in assay [3] and above 1000 nM in assay [4]. In addition, the Emax in assay [3] is above 100%.
On to `O=C(O)CCCN1Cc2ccc(C#Cc3ccc(OC(F)(F)F)c(F)c3)cc2C2(CC2)C1` [Compound 47, 4-(6′-((3-fluoro-4-(trifluoromethoxy)phenyl)ethynyl)-1′H-spiro[cyclopropane-1,4′-isoquinolin]-2′(3′H)-yl)butanoic acid], for which the EC50 in assay [1] (cells given as bound) is above 1000 nM; in assay [2] it was above 1000 nM; in assay [3] it was below 10 nM; in assay [4], above 1000 nM. Moreover, in assay [3], the Emax was above 100%.
As for `O=C(O)CCCN1Cc2ccc(C#Cc3ccc(OC(F)(F)F)cc3)cc2C2(CC2)C1` [Compound 48, 4-(6′-((4-(trifluoromethoxy)phenyl)ethynyl)-1′H-spiro[cyclopropane-1,4′-isoquinolin]-2′(3′H)-yl)butanoic acid], the EC50 was above 1000 nM in assay [1] (cells given as bound), above 1000 nM in assay [2], 10 to 100 nM in assay [3] and above 1000 nM in assay [4]. For the same compound, the Emax in assay [3] fell in the range of 50 to 100%.
Take `CC(CC(=O)O)CN1Cc2ccc(C#Cc3c(F)cccc3F)cc2C2(CC2)C1` (centres unmarked) [Compound 58, 4-(6′-((2,6-difluorophenyl)ethynyl)-1′H-spiro[cyclopropane-1,4′-isoquinolin]-2′(3′H)-yl)-3-methylbutanoic acid]: the concentration giving a half-maximal response (EC50) in assay [1] was 100 to 1000 nM; in assay [2], above 1000 nM; in assay [3] it was below 10 nM; in assay [4] it was above 1000 nM. Moreover, in assay [3], the Emax fell in the range of 50 to 100%.

(Values after US20210147381A1, “1,2,3,4-SUBSTITUTED QUINOLINE COMPOUNDS AS SIP MODULATORS” (AbbVie Deutschland GmbH & Co. KG, priority 2017, published 2021).)
